Experiments:
[1] = system: guinea pig tracheal rings; test: Ex vivo airway smooth muscle force, prevention or relaxation of a contraction (Example 5); conditions: solo therapy; vs vehicle
Experimental: The chloride channel blocker NPPB and the chloride transporter blocker bumetanide were evaluated for their ability to prevent an initial contraction (n=5) (FIG. 23A) or to relax an existing contraction (n=6) (FIG. 23B).
As a proof of concept for chloride channel blockade in general, another chloride channel blocker, 5-nitro-2-(3-phenylpropylamino)-benzoic acid (NPPB) was used in an ex vivo guinea pig airway smooth muscle model.

[2] = system: human airway smooth muscle; test: Relaxation of acetylcholine contraction in human airway smooth muscle strips; conditions: 10 μM bumetanide alone
Experimental: Studies using de-identified human tissue were reviewed by the Columbia University Institutional Review Board and deemed not human subjects research. Tissues were obtained from healthy, normal organ donor discarded surgical waste subsequent to lung transplant surgery. Tissues were collected after transplant and placed in DMEM media (GIBCO) and bubbled overnight in 5% carbon dioxide and 95% oxygen at 4° C. The following morning, the smooth muscle tissue was carefully dissected under a dissecting microscope and the epithelium removed. The strips were anchored in the organ bath as described above using KH buffer of the same composition. The strips were allowed to equilibrate for 1 hour with buffer exchanges every 15 minutes and were treated with 10^−6 M tetrodotoxin, 10^−5 M pyrilamine, and 10^−5
M MK571. Strips were contracted with an EC50 dose of acetylcholine (Ach)
This experiment was then repeated with human airway smooth muscle to investigate clinical relevance as a model of bronchospasm in humans.

rat lung slices = test: Airway lumen area in peripheral small airways of rat lung slices; conditions: 100 μM NFA; TEA-induced contraction
Experimental: The measurement of airway contraction of a luminal area of small lung airways using the ex vivo rat lung slice method was performed as described (Perez-Zoghbi et al., 2007). The trachea was cannulated with an intravenous catheter, and after the chest cavity was opened, the collapsed lungs were reinflated with 1.3±0.1 ml of 2% agarose (low-gelling temperature) in Sigma-Hanks' Balanced Salt solution (sHBSS), followed by the injection of 0.2±0.1 of air to flush the agarose-sHBSS out of the airways and into the distal alveolar space. Subsequently, a warm (37° C.) solution of gelatin (type A, porcine skin, 300 bloom, 6% in sHBSS) was perfused through the intrapulmonary blood vessels via the pulmonary artery by injecting about 0.3 ml into the right ventricle. The warm agar and gelatin were gelled with cold sHBSS. A single lung lobe was removed and cut into serial sections of about 130 μm thick with a vibratome at about 4° C., starting at the lung periphery. Slices were maintained in DMEM (Invitrogen) at 37° C. and 10% CO2 for up to 3 days. At 37° C., the gelatin in the blood vessel lumen dissolved, leaving the blood vessel lumen empty. Lung slices were mounted in a custom-made perfusion chamber and held in place with a small sheet of nylon mesh. A second cover glass edged with silicone grease was placed over the lung slice. Perfusion of the lung slice was performed using a gravity-fed perfusion system. The volume of the chamber was about 100 μl with a perfusion rate of about 800 μl/min. […] Digital images were recorded in time lapse (30 frames/min). The area of the bronchiole and arteriole lumen was calculated, from each image, by pixel summing using custom-written software. Experiments were performed at room temperature.

[3] = system: calcium activated chloride channel; test: Whole cell voltage clamp, spontaneous transient inward currents (STICs) in a single guinea pig airway smooth muscle cell; type: cell-based; conditions: about 100 μM bath application after TEA; holding potential about −60 mV
Source text: Epithelial denuded guinea pig tracheal rings were suspended in organ baths under 1 g resting tension with continuous digital recordings of muscle force. In separate studies, guinea pig airway smooth muscle cells were enzymatically dispersed and cultured.
Glass-bottom dishes served as a disposable recording chamber. ALA VM-8, an 8-chamber pressure-driven drug application system, was used in a still bath of extracellular salt solution. Whole-cell intracellular voltage recordings under current clamp conditions were performed with a 2-kHz Bessel filter, recording at 10 kHz using an Axopatch 200b amplifier (Axon Instruments, Foster City, Calif., USA). Electrodes were pulled using a P-97 micropipette puller from 1.5-mm OD borosilicate capillary glass (Sutter Instruments, Novato, Calif., USA). Glass electrode resistances ranged from 5 to 10 MO with intracellular solution. Whole-cell intracellular current recordings under voltage-clamp conditions were performed with a 2-kHz Bessel filter, recording at 10 kHz using an Axopatch 200b amplifier. For current measurements (FIG. 11) intracellular solutions consisted of (in mM) 140 TEA-Cl, 5 MgATP, 5 EGTA, 1 MgCl2, 10 HEPES, and 5 CaCl2 (pH 7.2). […] TEA-Cl was included in the buffer to enhance STICs which were then recorded during the addition of 100 μM niflumic acid. […] All recordings were analyzed on Clampfit 8.0 software (Molecular Devices).

[4] = system: guinea pig tracheal rings; test: Relaxation of potassium gluconate contraction in guinea pig tracheal rings; conditions: 100 μM, 80 mM potassium gluconate
Experimental: Animal protocols were approved by the Columbia University Animal Care and Use Committee. Male Hartley guinea pigs weighing approximately 400 g were anesthetized with intraperitoneal injection of sodium pentobarbital (100 mg/kg). Trachea were removed and transferred to ice cold Krebs-Henseleit (KH) buffer of the following composition (in mM): NaCl 118, KCl 5.6, CaCl2 0.5, MgSO4 0.24, NaH2PO4 1.3, NaHCO3 25, glucose 5.6, pH 7.4. Epithelial-denuded tracheal rings were prepared using a dissecting microscope. Epithelium was removed by gently passing cotton fibers through the lumen of the tracheal rings. The rings were suspended in 4 mL-water jacketed organ baths (37° C.: Radnoti Glass Technology, Monrovia, Calif.) and connected to a Grass FT03 force transducer (Grass Telefactor, West Warwick, R.I.) using silk sutures. The transducers were coupled to the computer with BioPac hardware and data was collected using Acqknowledge 7.3.3 software (BioPac Systems, Goleta, Calif.). KH buffer was bubbled with a gas mixture of 95% oxygen and 5% carbon dioxide and buffer was exchanged every 15 minutes for 1 hour during equilibration of tracheal rings at 1 g resting tension. […].
Many chloride channel blockers are known to also stimulate potassium channels (Greenwood et al., 2007). Thus, we performed additional studies in the presence of a large extracellular concentration of potassium to ensure that our findings of compound 1 or 13 inhibiting a TEA-induced depolarizing contraction were not due to these compounds opening a potassium channel.

| SMILES | relaxation of an existing contraction [1] | relaxation of acetylcholine contraction [2] | relaxation of TEA-contracted peripheral airway (lumen area) (rat lung slices) | spontaneous transient inward currents (STICs) [3] | percent of potassium gluconate-induced contraction at 30 minutes [4] | percent of potassium gluconate-induced contraction at 30 minutes ([4]; listed as NFA) |
| --- | --- | --- | --- | --- | --- | --- |
| CCCCNc1cc(C(=O)O)cc(S(N)(=O)=O)c1Oc1ccccc1 [bumetanide] | effective in relaxing an existing contraction | failed to relax an acetylcholine contraction | – | – | – | – |
| O=C(O)c1cccnc1Nc1cccc(C(F)(F)F)c1 [niflumic acid] | – | – | significantly relaxes the peripheral airway contracted with TEA | abolishes STIC's | 47.36%±4.6 | 47.4%±4.6 |
